Measurements as given in patent EP0565593B1, “REDUCING PESTICIDAL INTERACTIONS IN CROPS” (priority 1990, dated 1992).
Where “and” joins values, the source holds several entries; their conditions need not be identical. Identical values can stand only once.

Tests used:
Format in all cases: in vivo
[1] = tested on: Corn; experiment: Field trials, PPI, PRE and POE herbicide applications with terbufos (Example 7)
Excerpt: This example summarizes the results of one series of field trials from a plurality of locations and soil types wherein test chemicals were applied in various modes including pre-plant incorporated (PPI), post emergence (POE) and preemergence (PRE) with and without a safener (antidote). Test Chemicals were Herbicide Nos 1, 2, 3 and 7-9; Insecticide No. 1 and Antidote No. 1.
In these trials Insecticide No. 1 (terbufos) was T-banded or furrow applied at labeled rates prior to planting corn. PPI herbicide treatments were applied prior to insecticide applications; PRE treatments were applied after the insecticide application either prior to or after seeding the corn. POE herbicide applications were made at 2 corn-growth stages, i.e., early post (EP) at the 2-3 leaf stage and late post (LP) at the 4-7 leaf stage. Plots were small plot with 3 replications in a randomized complete block design. In the PRE and PPI herbicide treatments, Antidote No. 1 was applied as a tankmix in both treatments. In the POE herbicide treatments, that antidote was applied as a tank mix with the herbicide at the EP and LP stages.

[2] = tested on: velvetleaf (Abutilon theophrasti); experiment: Greenhouse test, combination of Procedures II and III (Examples 1, 2; Tables 1, 2); conditions: for Percent Injury VELE: 7 weeks; for % Injury VELE: 3 weeks
[3] = tested on: Corn; experiment: Greenhouse test, combination of Procedures II and III: insecticide in-furrow or in cover layer, herbicide and antidote incorporated in cover layer (Examples 1-3, 6; Tables 1-3, 6); conditions: for Percent Injury Corn: 7 weeks; for % Injury Corn: 3 weeks
[4] = Antidote 1 0.14 + Herbicide 1 0.14 Kg/Ha
[5] = Antidote 1 0.56 + Herbicide 1 0.56 Kg/Ha
[6] = Antidote 1 2.24 + Herbicide 1 2.24 Kg/Ha
[7] = Ex. 2: Antidote 1 0.14 + Herbicide 1 0.14 Kg/Ha
[8] = Ex. 2: Antidote 1 0.42 + Herbicide 1 0.14 Kg/Ha
[9] = Ex. 2: Antidote 1 0.56 + Herbicide 1 0.56 Kg/Ha
[10] = Ex. 2: Antidote 1 1.68 + Herbicide 1 0.56 Kg/Ha
[11] = Ex. 2: Insecticide 1 0.11 kg/305m + Antidote 1 0.14 + Herbicide 1 0.14 Kg/Ha
[12] = Ex. 2: Insecticide 1 0.11 kg/305m + Antidote 1 0.42 + Herbicide 1 0.14 Kg/Ha
[13] = Ex. 2: Insecticide 1 0.11 kg/305m + Antidote 1 0.56 + Herbicide 1 0.56 Kg/Ha
[14] = Ex. 2: Insecticide 1 0.11 kg/305m + Antidote 1 1.68 + Herbicide 1 0.56 Kg/Ha
[15] = Ex. 2: Insecticide 1 0.23 Kg/305m + Antidote 1 0.14 + Herbicide 1 0.14 Kg/Ha
[16] = Ex. 2: Insecticide 1 0.23 Kg/305m + Antidote 1 0.22 + Herbicide 1 0.14 + Herbicide 2 4.48 Kg/Ha
[17] = Ex. 2: Insecticide 1 0.23 Kg/305m + Antidote 1 0.42 + Herbicide 1 0.14 Kg/Ha
[18] = Ex. 2: Insecticide 1 0.23 Kg/305m + Antidote 1 0.56 + Herbicide 1 0.56 Kg/Ha
[19] = Ex. 2: Insecticide 1 0.23 Kg/305m + Antidote 1 1.68 + Herbicide 1 0.56 Kg/Ha
[20] = Ex. 2: Insecticide 2 3.36 Kg/Ha + Antidote 1 0.22 + Herbicide 1 0.14 + Herbicide 2 4.48 Kg/Ha
[21] = Ex. 2: Insecticide 2 3.36 Kg/Ha + Antidote 1 0.22 + Herbicide 2 4.48 Kg/Ha

`CC1(C)OC(c2ccco2)CN1C(=O)C(Cl)Cl` (stereo not drawn) [Antidote No. 1, Oxazolidine, 3-(dichloroacetyl)-2,2-dimethyl-5-(2-furanyl)-] was tested, and the “safening of insecticide interactions” value ([1]; antidote tankmix POE with Herbicide No. 7, Insecticide No. 1) was “effectively safened”, the “crop injury” value ([1]; mean of nine locations, PRE and PPI, Insecticide No. 1, 1:1 Herbicide No. 1:Antidote No. 1 and 30:1 Herbicide No. 2:Antidote No. 1) was “reduced from non-commercially-acceptable to commercially-acceptable levels” and the “Percent Injury VELE” value [2, 4] was 88%. The “Percent Injury VELE” value [2, 5] was 92%, the “Percent Injury VELE” value [2, 6] was 93% and the “Percent Injury VELE” value ([2]; Antidote 1 2.24 Kg/Ha alone) was 0%. For the same compound, the “% Injury VELE” value [2, 7] was 86%, the “% Injury VELE” value [2, 8] was 93% and the “% Injury VELE” value [2, 9] was 90%. The “% Injury VELE” value [2, 10] was 95%, the “% Injury VELE” value [2, 11] was 78% and the “% Injury VELE” value [2, 12] was 84%. For the same compound, the “% Injury VELE” value [2, 13] was 93%, the “% Injury VELE” value [2, 14] was 95% and the “% Injury VELE” value ([2]; Ex. 2: Insecticide 1 0.23 Kg/305m (ditto mark) + Antidote 1 0.22 + Herbicide 2 4.48 Kg/Ha (so in the source)) was 36% and 38%. The “% Injury VELE” value [2, 15] was 83%, the “% Injury VELE” value [2, 16] was 98% and the “% Injury VELE” value [2, 17] was 90%. The “% Injury VELE” value [2, 18] was 95%, the “% Injury VELE” value [2, 19] was 93% and the “% Injury VELE” value ([2]; Ex. 2: Insecticide 2 1.68 kg/Ha + Antidote 1 0.14 + Herbicide 1 0.14 Kg/Ha (so in the source)) was 91% and 84% and 79%. The “% Injury VELE” value ([2]; Ex. 2: Insecticide 2 1.68 kg/Ha + Antidote 1 0.56 + Herbicide 1 0.56 Kg/Ha (so in the source)) was 90% and 89% and 91%, the “% Injury VELE” value ([2]; Ex. 2: Insecticide 2 3.36 Kg/Ha + Antidote 1 0.14 + Herbicide 1 0.14 Kg/Ha (so in the source)) was 81% and 79% and 89% and the “% Injury VELE” value [2, 20] was 83%. For the same compound, the “% Injury VELE” value [2, 21] was 11%, the “% Injury VELE” value ([2]; Ex. 2: Insecticide 2 3.36 Kg/Ha + Antidote 1 0.56 + Herbicide 1 0.56 Kg/Ha (so in the source)) was 95% and the “Percent Injury VELE” value ([2]; Insecticide 1 0.23 kg/305m + Antidote 1 0.14 + Herbicide 1 0.14 Kg/Ha) was 87%. The “Percent Injury VELE” value ([2]; Insecticide 1 0.23 kg/305m + Antidote 1 0.14 Kg/Ha, no herbicide) was 0%, the “Percent Injury VELE” value ([2]; Insecticide 1 0.23 kg/305m + Antidote 1 0.56 + Herbicide 1 0.56 Kg/Ha) was 90% and the “Percent Injury VELE” value ([2]; Insecticide 1 0.23 kg/305m + Antidote 1 0.56 Kg/Ha, no herbicide) was 0%. For the same compound, the “Percent Injury VELE” value ([2]; Insecticide 1 0.23 kg/305m + Antidote 1 2.24 + Herbicide 1 2.24 Kg/Ha) was 92%, the “Percent Injury VELE” value ([2]; Insecticide 1 0.23 kg/305m + Antidote 1 2.24 Kg/Ha, no herbicide) was 0% and the “Percent Injury VELE” value ([2]; Insecticide 1 (H2O) (crystals scattered in-furrow) + Antidote 1 2 + Herbicide 1 2 Kg/Ha) was 95%. The “Percent Injury VELE” value ([2]; Insecticide 1 (H2O) (crystals scattered in-furrow) + Antidote 1 2 Kg/Ha) was 0%, the “Percent Injury VELE” value ([2]; Insecticide 2 3.36 kg/ha + Antidote 1 0.14 + Herbicide 1 0.14 Kg/Ha) was 83% and the “Percent Injury VELE” value ([2]; Insecticide 2 3.36 kg/ha + Antidote 1 0.14 Kg/Ha, no herbicide) was 78%. The “Percent Injury VELE” value ([2]; Insecticide 2 3.36 kg/ha + Antidote 1 0.56 + Herbicide 1 0.56 Kg/Ha) was 92%, the “Percent Injury VELE” value ([2]; Insecticide 2 3.36 kg/ha + Antidote 1 0.56 Kg/Ha, no herbicide) was 33% and the “Percent Injury VELE” value ([2]; Insecticide 2 3.36 kg/ha + Antidote 1 2.24 + Herbicide 1 2.24 Kg/Ha) was 95%. The “Percent Injury VELE” value ([2]; Insecticide 2 3.36 kg/ha + Antidote 1 2.24 Kg/Ha, no herbicide) was 0%, the “Percent Injury Corn” value [3, 4] was 2% and the “Percent Injury Corn” value [3, 5] was 5%. For the same compound, the “Percent Injury Corn” value [3, 6] was 15%, the “Percent Injury Corn” value ([3]; Antidote 1 2.24 Kg/Ha alone) was 0% and the “% Injury Corn” value [3, 7] was 0%. The “% Injury Corn” value [3, 8] was 8%, the “% Injury Corn” value [3, 9] was 3% and the “% Injury Corn” value [3, 10] was 5%. The injury to corn ([3]; Ex. 2: Herbicide No. 1 0.14 kg/ha + Insecticide 1 or 2, antidote applied at 3 X the herbicide rate) was “less than 10%”, the “% Injury Corn” value [3, 11] was 26% and the “% Injury Corn” value [3, 12] was 6%. For the same compound, the “% Injury Corn” value [3, 13] was 30%, the “% Injury Corn” value [3, 14] was 18% and the “% Injury Corn” value [3, 15] was 18%. For the same compound, the “% Injury Corn” value [3, 16] was 20%, the “% Injury Corn” value [3, 17] was 6% and the “% Injury Corn” value [3, 18] was 33%. The “% Injury Corn” value [3, 19] was 34%, the “% Injury Corn” value [3, 20] was 29% and the “% Injury Corn” value [3, 21] was 19%. For the same compound, the “% Injury Corn” value ([3]; Ex. 3: Antidote 1 0.14 + Herbicide 1 0.14 Kg/Ha) was 3%, the “% Injury Corn” value ([3]; Ex. 3: Antidote 1 0.22 + Herbicide 2 4.48 Kg/Ha) was 13% and the “% Injury Corn” value ([3]; Ex. 3: Antidote 1 0.42 + Herbicide 1 0.14 Kg/Ha) was 3%. The “% Injury Corn” value ([3]; Ex. 3: Antidote 1 0.56 + Herbicide 1 0.56 Kg/Ha) was 8%, the “% Injury Corn” value ([3]; Ex. 3: Antidote 1 1.68 + Herbicide 1 0.56 Kg/Ha) was 3% and the corn injury ([3]; Ex. 3: Herbicide No. 1 + Insecticide 3 or 4, Antidote No. 1 at 1:1 ratio, all cases) was “less than 5%”.
